Experimental data reported in EP1283052A1, “Pharmaceutical composition containing caspase-8 and /or caspase-9 useful for overcoming glucocorticoid- and cancer therapy-induced apoptosis of tumours” (Deutsches Krebsforschungszentrum Stiftung des öffentlichen …, priority 2001, dated 2003).

What was measured:
[1] = tested on: caspase-3; assay: Fluorometric caspase-3 activity assay in CEM leukemic T cells; format: cell-based, human; conditions: cisplatin 2 µg/ml alone, Fig. 1c
Method: • (a) Human epidermoid lung cancer cells (P693) were injected into nude mice. At a tumour volume of 500 mm^3 weekly treatment with cisplatin (5mg/kg/week) was started. Cisplatin was injected intraperitoneally in the absence (CIS) or presence (DEX/CIS) of DEX which was added to the drinking water (0.28 mg/L) for the duration of the experiment. […] As controls, tumor growth of xenografts from mice which received neither cisplatin nor DEX (CO) or from mice which received DEX only (DEX) was determined. The tumour volume in each animal was measured at weekly intervals for a period of 5 weeks. Data are presented as the means +/- SD of 6 to 8 animals. • (b) The human cervical carcinoma cell lines HeLa and P5 were γ-irradiated (10 Gy) or treated with cisplatin (2 µg/ml) in the absence (white bars) or presence (black bars) of DEX (1 µM). The percentage of apoptosis was measured in untreated (CO) and stimulated cells by annexin-staining and FACS-analysis at the time points indicated. (c) P5, P693 and human leukemic T cells (CEM) cells were treated with cisplatin (2 µg/ml) in the absence or presence of DEX as indicated. 24 and 48 h following treatment cells were lysed and caspase-3 activity was determined by a fluorescent caspase-3 assay and spectroscopy.

[2] = tested on: caspase-8; assay: Fluorometric caspase-8 activity assay in CEM cells; format: cell-based, human; conditions: cisplatin 2 µg/ml alone, Fig. 2b
Method: • (a) Left: P5 an CEM cells were treated with cisplatin (1-5 µg/ml) in the absence or presence of DEX (1 µM) as indicated. Proteins were extracted and expression of CD95-L, TRAIL or TNF-α was detected by Western blot analysis. The size of the proteins in kDa is indicated. Right: HeLa and P5 were treated with CD95 agonistic antibody αAPO-1 (CD95, 1 µg/ml), recombinant TRAIL protein (TRAIL, 100 ng/ml) or recombinant TNF-α protein (TNF-α, 100 ng/ml) in the absence (white bars) or presence (black bars) of DEX (1 µM). 24 h later the percentage of apoptosis was determined by annexin-staining and FACS-analysis in untreated (CO) and stimulated cells at the time points indicated. • (b) P693 and CEM cells were treated with cisplatin (2 µg/ml) in the absence or presence of DEX as indicated. 24 and 48 h following treatment cells were lysed and caspase-8 activity was determined by a fluorescent caspase-8 assay and spectroscopy. • (c) P5 cells were stable transfected with empty vector (pcDNA3), or pcDNA3 vector encoding dominant negative FADD protein (FADD-DN). Proteins were extracted from both cell lines and expression of wildtype (WT) and FADD-DN (DN) was detected by Western blot. Left: Stable transfected P5 cells were treated with αAPO-1 (1 µg/ml) and 24 h later apoptosis was determined by staining with annexin/propidium iodide and flow-cytometry. […]

Structure (SMILES): N.N.[Cl][Pt][Cl] [cisplatin]
- caspase-3 activity [1]: responded earlier at 24 h with increased activity at 48 h
- activity of caspase-8 [2]: responded earlier at 24 h with increased activity at 48 h
